# Measurements: patent US12590091B2, “1H-pyrrolo[3,2-C]pyridine and 1H-pyrrolo[2,3-C]pyridine derivatives as TLR9 inhibitors for the treatment of fibrosis” (BRISTOL-MYERS SQUIBB COMPANY, priority 2020, dated 2026)
# Biological target: T1, human TLR7 (Homo sapiens, UniProt Q9NYK1)
# T1 construct: host or cells: HEK-Blue cells
# T1 sequence (Q9NYK1 27-1049): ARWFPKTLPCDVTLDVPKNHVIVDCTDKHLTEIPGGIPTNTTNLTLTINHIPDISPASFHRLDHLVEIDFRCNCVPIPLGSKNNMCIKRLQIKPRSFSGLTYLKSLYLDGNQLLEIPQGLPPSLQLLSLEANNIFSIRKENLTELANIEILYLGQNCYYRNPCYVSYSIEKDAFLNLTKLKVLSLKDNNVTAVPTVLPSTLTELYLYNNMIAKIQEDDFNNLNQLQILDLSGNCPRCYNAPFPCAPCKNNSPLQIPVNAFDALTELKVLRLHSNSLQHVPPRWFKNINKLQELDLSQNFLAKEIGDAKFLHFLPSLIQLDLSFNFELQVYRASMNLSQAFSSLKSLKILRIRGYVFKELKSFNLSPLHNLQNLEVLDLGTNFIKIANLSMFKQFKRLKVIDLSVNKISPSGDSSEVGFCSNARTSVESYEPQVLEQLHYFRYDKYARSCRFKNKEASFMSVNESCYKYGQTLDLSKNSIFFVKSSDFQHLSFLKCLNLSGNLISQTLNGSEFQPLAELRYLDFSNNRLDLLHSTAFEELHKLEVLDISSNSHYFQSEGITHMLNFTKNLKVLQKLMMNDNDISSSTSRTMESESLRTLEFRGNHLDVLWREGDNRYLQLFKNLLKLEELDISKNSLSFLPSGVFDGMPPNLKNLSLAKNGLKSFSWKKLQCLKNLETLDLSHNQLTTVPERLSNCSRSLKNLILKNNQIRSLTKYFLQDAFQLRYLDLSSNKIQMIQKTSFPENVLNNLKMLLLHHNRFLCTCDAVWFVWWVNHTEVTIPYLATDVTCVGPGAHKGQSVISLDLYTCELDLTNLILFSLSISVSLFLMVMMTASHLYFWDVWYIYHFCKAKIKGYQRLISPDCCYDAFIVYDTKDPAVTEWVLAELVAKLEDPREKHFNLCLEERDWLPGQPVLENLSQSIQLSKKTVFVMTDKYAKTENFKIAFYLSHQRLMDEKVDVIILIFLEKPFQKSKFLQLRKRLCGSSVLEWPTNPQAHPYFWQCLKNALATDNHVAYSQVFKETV
# Assay: TLR7 inhibition reporter assay (HEK-Blue cells, SEAP reporter)
# Type: cell-based
# Details: HEK-Blue cells overexpressing human TLR7, stimulated with gardiquimod 7.5 μM, 22 hour incubation
# Outline: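 Compound treatment: 30 min, RT, 0.05 nM–50 μM final. Agonist: TLR7 gardiquimod 7.5 μM; TLR8 R848 15.9 μM; TLR9 ODN2006 5 nM. Incubation 22 h, 37 °C, 5% CO2. Readout SEAP, HEK-Blue Detection.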
row,Structure (SMILES),IC50
1,"CCN1C2CCC1CC(O)(c1ccc(-c3cc4c(cc(-c5ccc(S(C)(=O)=O)cc5)n4C)c(C)n3)cc1F)C2 [Example 101, (1R,3r,5S)-3-(4-(1,4-dimethyl-2-(4-(methylsulfonyl)phenyl)-1H-pyrrolo[3,2-c]pyridin-6-yl)-2-fluorophenyl)-8-ethyl-8-azabicyclo[3.2.1]octan-3-ol]",5700 nM
2,"Cc1nc(-c2ccc(C3(O)CC4CCC(C3)N4C)c(F)c2)cc2c1cc(-c1ccc(S(C)(=O)=O)cc1)n2C [Example 102, (1R,3r,5S)-3-(4-(1,4-dimethyl-2-(4-(methylsulfonyl)phenyl)-1H-pyrrolo[3,2-c]pyridin-6-yl)-2-fluorophenyl)-8-methyl-8-azabicyclo[3.2.1]octan-3-ol]",5500 nM
3,"Cc1nc(-c2ccc(C3(O)CCN(C(C)(C)C)CC3)c(F)c2)cc2c1cc(-c1ccc(S(C)(=O)=O)cc1)n2C [Example 104, 1-(tert-butyl)-4-(4-(1,4-dimethyl-2-(4-(methylsulfonyl)phenyl)-1H-pyrrolo[3,2-c]pyridin-6-yl)-2-fluorophenyl)piperidin-4-ol]",2200 nM
4,"Cc1nc(-c2ccc([C@@]3(O)CCN(C(C)C)C(C)(C)C3)c(F)c2)cc2c1cc(-c1ccc(S(C)(=O)=O)cc1)n2C [Example 105, (R)-4-(4-(1,4-dimethyl-2-(4-(methylsulfonyl)phenyl)-1H-pyrrolo[3,2-c]pyridin-6-yl)-2-fluorophenyl)-1-isopropyl-2,2-dimethylpiperidin-4-ol]",1100 nM
5,"Cc1nc(-c2ccc([C@]3(O)CCN(C(C)C)C(C)(C)C3)c(F)c2)cc2c1cc(-c1ccc(S(C)(=O)=O)cc1)n2C [Example 106, (S)-4-(4-(1,4-dimethyl-2-(4-(methylsulfonyl)phenyl)-1H-pyrrolo[3,2-c]pyridin-6-yl)-2-fluorophenyl)-1-isopropyl-2,2-dimethylpiperidin-4-ol]",1500 nM
6,"Cc1nc(-c2ccc(C3(O)CCN(C(C)C)CC3)c(F)c2)cc2c1cc(-c1ccc(S(C)(=O)=O)cc1)n2C [Example 107, 4-(4-(1,4-dimethyl-2-(4-(methylsulfonyl)phenyl)-1H-pyrrolo[3,2-c]pyridin-6-yl)-2-fluorophenyl)-1-isopropylpiperidin-4-ol]",2100 nM
7,"Cc1nc(-c2ccc(C3(O)CCN(C(C)(C)C)CC3)cc2F)cc2c1cc(-c1ccc(S(C)(=O)=O)cc1)n2C [Example 108, 1-(tert-butyl)-4-(4-(1,4-dimethyl-2-(4-(methylsulfonyl)phenyl)-1H-pyrrolo[3,2-c]pyridin-6-yl)-3-fluorophenyl)piperidin-4-ol]",1700 nM
8,"Cc1nc(-c2ccc(C3(O)CCN(C(C)C)CC3)cc2F)cc2c1cc(-c1ccc(S(C)(=O)=O)cc1)n2C [Example 109, 4-(4-(1,4-dimethyl-2-(4-(methylsulfonyl)phenyl)-1H-pyrrolo[3,2-c]pyridin-6-yl)-3-fluorophenyl)-1-isopropylpiperidin-4-ol]",1300 nM
9,"Cc1nc(C2CCN(C3CC4CCC(C3)N4CC(C)C)CC2)cc2c1cc(-c1ccc(S(C)(=O)=O)cc1)n2C (centres unmarked) [Example 114, 6-(1-(8-isobutyl-8-azabicyclo[3.2.1]octan-3-yl)piperidin-4-yl)-1,4-dimethyl-2-(4-(methylsulfonyl)phenyl)-1H-pyrrolo[3,2-c]pyridine]",14200 nM

# Second part, the compound after the results:
row,IC50,Structure (SMILES)
1,16000 nM,"Cc1nc(-c2ccc(CN3CCN(CCC(C)(C)O)CC3)cc2)cc2c1c(F)c(-c1ccc(S(C)(=O)=O)cc1)n2C [Example 115, 4-(4-(4-(3-fluoro-1,4-dimethyl-2-(4-(methylsulfonyl)phenyl)-1H-pyrrolo[3,2-c]pyridin-6-yl)benzyl)piperazin-1-yl)-2-methylbutan-2-ol]"
2,3200 nM,"Cc1nc(-c2ccc(CN3CCN(CCC(C)(C)O)CC3)cc2)cc2c1cc(-c1ccc(S(C)(=O)=O)cc1)n2C1CC1 [Example 116, 4-[4-[[4-[1-cyclopropyl-4-methyl-2-(4-methylsulfonylphenyl)pyrrolo[3,2-c]pyridin-6-yl]phenyl]methyl]piperazin-1-yl]-2-methyl-butan-2-ol]"
3,1700 nM,"CC(C)N1CCN(c2ccc(-c3cc4c(cc(-c5ccc(S(C)(=O)=O)cc5)n4C)c(C(C)(C)O)n3)cc2)CC1 [Example 118, 2-[6-[4-(4-isopropylpiperazin-1-yl)phenyl]-1-methyl-2-(4-methylsulfonylphenyl)pyrrolo[3,2-c]pyridin-4-yl]propan-2-ol]"
4,600 nM,"CC(C)(O)CN1C2CCC1CN(Cc1ccc(-c3cc4c(cn3)cc(-c3ccc(S(C)(=O)=O)cc3)n4C3CC3)cc1)C2 [Example 121, 1-[3-[[4-[1-cyclopropyl-2-(4-methylsulfonylphenyl)pyrrolo[3,2-c]pyridin-6-yl]phenyl]methyl]-3,8-diazabicyclo[3.2.1]octan-8-yl]-2-methyl-propan-2-ol]"
5,17100 nM,"Cc1nc(-c2ccc(CN3CCN(CC(C)(C)O)CC3)cc2)cc2c1c(F)c(-c1ccc(S(C)(=O)=O)cc1)n2C [Example 122, 1-(4-(4-(3-fluoro-1,4-dimethyl-2-(4-(methylsulfonyl)phenyl)-1H-pyrrolo[3,2-c]pyridin-6-yl)benzyl)piperazin-1-yl)-2-methylpropan-2-ol]"
6,3700 nM,"Cc1nc(-c2ccc(CN3CCN(CC(C)(C)O)CC3)cc2)cc2c1cc(-c1ccc(S(C)(=O)=O)cc1)n2C1CC1 [Example 123, 1-(4-(4-(1-cyclopropyl-4-methyl-2-(4-(methylsulfonyl)phenyl)-1H-pyrrolo[3,2-c]pyridin-6-yl)benzyl)piperazin-1-yl)-2-methylpropan-2-ol]"
7,> 50000 nM,"Cc1nc(-c2ccc(CN3CCN(CC(C)(C)O)CC3)cc2)cc2c1cc(-c1ccc(S(C)(=O)=O)cc1)n2C(F)F [Example 124, 1-(4-(4-(1-(difluoromethyl)-4-methyl-2-(4-(methylsulfonyl)phenyl)-1H-pyrrolo[3,2-c]pyridin-6-yl)benzyl)piperazin-1-yl)-2-methylpropan-2-ol]"
8,3100 nM,"CC(C)N1CCN(Cc2ccc(-c3cc4c(cc(-c5ccc(S(C)(=O)=O)cc5)n4C)c(C(C)(C)O)n3)cc2)CC1 [Example 125, 2-(6-(4-((4-isopropylpiperazin-1-yl)methyl)phenyl)-1-methyl-2-(4-(methylsulfonyl)phenyl)-1H-pyrrolo[3,2-c]pyridin-4-yl)propan-2-ol]"
9,2800 nM,"CC(C)(O)CN1CCN(Cc2ccc(-c3cc4c(cn3)cc(-c3ccc(S(C)(=O)=O)cc3)n4C3CC3)cc2)CC1 [Example 128, 1-(4-(4-(1-cyclopropyl-2-(4-(methylsulfonyl)phenyl)-1H-pyrrolo[3,2-c]pyridin-6-yl)benzyl)piperazin-1-yl)-2-methylpropan-2-ol]"
10,3600 nM,"CC(C)(O)CCN1CCN(Cc2ccc(-c3cc4c(cn3)cc(-c3ccc(S(C)(=O)=O)cc3)n4C3CC3)cc2)CC1 [Example 129, 4-(4-(4-(1-cyclopropyl-2-(4-(methylsulfonyl)phenyl)-1H-pyrrolo[3,2-c]pyridin-6-yl)benzyl)piperazin-1-yl)-2-methylbutan-2-ol]"
11,1900 nM,"CC(C)(O)CN1CC2CCC(C1)N2Cc1ccc(-c2cc3c(cn2)cc(-c2ccc(S(C)(=O)=O)cc2)n3C2CC2)cc1 [Example 130, 1-(8-(4-(1-cyclopropyl-2-(4-(methylsulfonyl)phenyl)-1H-pyrrolo[3,2-c]pyridin-6-yl)benzyl)-3,8-diazabicyclo[3.2.1]octan-3-yl)-2-methylpropan-2-ol]"
